Test results taken from paper PMC5041982, “Small-molecule inhibition of STAT3 in radioresistant head and neck squamous cell carcinoma” (Oncotarget, 2016).

Key:
STAT3 = STAT3 (Homo sapiens, UniProt P40763); test: STAT3/pY-peptide binding surface plasmon resonance (SPR) assay; details: for Inhibition of STAT3 binding to pY-peptide compared with C188: SPR; for IC50: STAT3 200 nM, EGFR pY1068 dodecapeptide, mean, n ≥ 2, read-out: pY-Peptide Binding (SPR) IC50
Procedure: The equilibrium binding levels obtained ± compound were normalized (resonance obtained in the presence of compound ÷ the resonance obtained in the absence of compound × 100) and plotted against Log [nM] […] B. Inhibition of ligand-stimulated STAT phosphorylation, measured by phosphoflow. Serum-starved (1 hour) Kasumi-1 cells, pre-incubated with compound/DMSO (1 hour), were treated with G-CSF (10 ng/ml, 15 min, left two panels) or IFN-γ (10ng/ml, 15 min, right panel). Cells were permeabilized and stained with Alexa647-pSTAT3, and PE-pSTAT1 antibodies and analyzed on BD LSR2. FCS files were uploaded to Cytobank for pSTAT3 and pSTAT1 quantitation. Histograms depicting pSTAT3 and pSTAT1 levels are shown. C. Mean fluorescence (pSTAT3/1) levels were plotted as function the Log [M] compound, and IC50 calculated using GraphPad. […] D. Inhibition of ligand-stimulated STAT phosphorylation, measured by Luminex. Serum-starved (1 hour) Kasumi-1 cells, pre-incubated with compound/DMSO (0/0.1/0.3/1/3/10/100 μM, 1 hour), were treated with G-CSF (10 ng/ml, 15′). Total protein extracts of cells were assayed for pSTAT3, pSTAT1, and GAPDH levels by Luminex. GAPDH-normalized pSTAT3 or pSTAT1 values were divided by this ratio for untreated cells and expressed in percentage. These values were plotted as a function of Log [M] compound, and IC50 values calculated using GraphPad. […]
3-D pharmacophore sorting used to evaluate the effect of each compound on STAT3 binding. Responses were normalized by dividing the […]
fingerprint screening were converted into 3-D structures compounds at 2 min and multiplying by 100. IC values […]
for analysis as described below. were determined by plotting % maximum response as a 3-D pharmacophore generation function of log concentration of compound and fitting the Each molecular chemical feature, including experimental points to a competitive binding model using hydrogen bond donor, hydrogen bond acceptor, positive a four parameter logistic equation: R = Rhigh − (Rhigh − R low)/ (1 + conc/A1)^A2, where R = percent response at and negative ionizable group, and hydrophobic region, inhibitor concentration, R = percent response with no was generated using the LigandScout application compound, R= percent response at highest compound high framework and projected into 3-D space. concentration, A2 = fitting parameter (slope) and A1 = low Feature-pairing IC50 (BIAevaluation Software version 4.1). The inhibition Each chemical feature was converted into distance constant (Ki) was derived from the Cheng-Prusoff bin and the complete set of distance bins used to construct equation Ki=IC50/(1+[C]/Kd) as used by Halling et al a cost matrix. The most favorable pairing based on cost where C stands for STAT3 concentration used in the SPR matrix was identified. assay and Kd denotes the dissociation constant for STAT3 3-D pharmacophore transformation binding to its phosphorylated EGFR ligand in the SPR […]
STAT3/pY-peptide binding assay and total protein extracted from cell pellets. […]
STAT3 binding assays were performed at 25 °C (Millipore, Danvers, MA) coupled to antibody against

pSTAT5 = test: Phosphoflow, G-CSF-induced pSTAT5 in Kasumi-1 cells; type: cell-based; details: mean, n ≥ 2, read-out: Ligand Induced Phosphorylation (Phosphoflow) pSTAT5 (G-CSF) IC50
Procedure: (§1) Phosphoflow analysis was done as described in Xu et al. Briefly, Kasumi-1 cells, were serum-starved, pre-treated with compound or DMSO (1 hour, RT) and then stimulated with 20 μl of GCSF (10 ng/ml) for 15 minutes at 37°C. The cells were then permeabilized and stained with Alexa647-pSTAT3, Alexa488-pSTAT5 and PE-pSTAT1 antibodies and analyzed using the BD LSR2. FCS files were exported and uploaded to Cytobank for determination of phosphoproteins as earlier. Gating was done on live, single cells and then gates selected for positive ligand-activated pSTAT3 and pSTAT1. IC50 values were calculated using the GraphPad Prism.

pSTAT1 (Tyr-701) = biological target: T1, pSTAT1 (Tyr-701) (Homo sapiens, UniProt P42224); test: Phosphoflow, IFN-γ-induced pSTAT1 in Kasumi-1 cells; type: cell-based; details: Kasumi-1, IFN-γ 10 ng/ml 15 min; mean, n ≥ 2; read-out: Ligand Induced Phosphorylation (Phosphoflow) pSTAT1 (IFN-γ) IC50
T1 construct: endogenous in cells; host or cells: Kasumi-1
T1 sequence (P42224 1-750): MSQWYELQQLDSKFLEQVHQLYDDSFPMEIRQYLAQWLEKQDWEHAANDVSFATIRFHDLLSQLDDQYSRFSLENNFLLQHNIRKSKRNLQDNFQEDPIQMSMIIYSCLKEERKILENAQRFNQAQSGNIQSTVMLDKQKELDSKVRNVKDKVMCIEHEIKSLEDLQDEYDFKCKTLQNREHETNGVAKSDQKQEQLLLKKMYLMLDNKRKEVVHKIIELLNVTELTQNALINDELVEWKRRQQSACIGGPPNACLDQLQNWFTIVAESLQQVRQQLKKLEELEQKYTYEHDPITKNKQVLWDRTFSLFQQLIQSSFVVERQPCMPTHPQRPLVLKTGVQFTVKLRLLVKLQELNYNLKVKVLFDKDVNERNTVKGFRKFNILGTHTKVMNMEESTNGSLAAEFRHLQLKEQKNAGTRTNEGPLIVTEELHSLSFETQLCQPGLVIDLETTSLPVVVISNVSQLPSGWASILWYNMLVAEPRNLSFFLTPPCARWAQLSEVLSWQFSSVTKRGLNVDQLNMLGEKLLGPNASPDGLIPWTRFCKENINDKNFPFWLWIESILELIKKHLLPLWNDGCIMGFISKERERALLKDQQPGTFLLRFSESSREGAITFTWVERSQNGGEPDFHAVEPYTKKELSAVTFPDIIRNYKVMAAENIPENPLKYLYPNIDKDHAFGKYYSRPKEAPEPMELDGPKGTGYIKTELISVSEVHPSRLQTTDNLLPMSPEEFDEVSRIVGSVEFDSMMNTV
Procedure: (§2) The equilibrium binding levels obtained ± compound were normalized (resonance obtained in the presence of compound ÷ the resonance obtained in the absence of compound × 100) and plotted against Log [nM] […] B. Inhibition of ligand-stimulated STAT phosphorylation, measured by phosphoflow. Serum-starved (1 hour) Kasumi-1 cells, pre-incubated with compound/DMSO (1 hour), were treated with G-CSF (10 ng/ml, 15 min, left two panels) or IFN-γ (10ng/ml, 15 min, right panel). Cells were permeabilized and stained with Alexa647-pSTAT3, and PE-pSTAT1 antibodies and analyzed on BD LSR2. FCS files were uploaded to Cytobank for pSTAT3 and pSTAT1 quantitation. Histograms depicting pSTAT3 and pSTAT1 levels are shown. C. Mean fluorescence (pSTAT3/1) levels were plotted as function the Log [M] compound, and IC50 calculated using GraphPad. […] D. Inhibition of ligand-stimulated STAT phosphorylation, measured by Luminex. Serum-starved (1 hour) Kasumi-1 cells, pre-incubated with compound/DMSO (0/0.1/0.3/1/3/10/100 μM, 1 hour), were treated with G-CSF (10 ng/ml, 15′). Total protein extracts of cells were assayed for pSTAT3, pSTAT1, and GAPDH levels by Luminex. GAPDH-normalized pSTAT3 or pSTAT1 values were divided by this ratio for untreated cells and expressed in percentage. These values were plotted as a function of Log [M] compound, and IC50 values calculated using GraphPad.
as §1

pSTAT3 (Tyr-705) = biological target: T2, pSTAT3 (Tyr-705) (Homo sapiens, UniProt P40763); test: Phosphoflow, G-CSF-induced STAT3 phosphorylation in Kasumi-1 cells; type: cell-based; details: Kasumi-1, G-CSF 10 ng/ml 15 min; mean, n ≥ 2; read-out: Ligand Induced Phosphorylation (Phosphoflow) pSTAT3 (GCSF) IC50
T2 construct: endogenous in cells; host or cells: Kasumi-1
Procedure: as §2, §1

Sequence of STAT3 (P40763 whole entry, species assumed): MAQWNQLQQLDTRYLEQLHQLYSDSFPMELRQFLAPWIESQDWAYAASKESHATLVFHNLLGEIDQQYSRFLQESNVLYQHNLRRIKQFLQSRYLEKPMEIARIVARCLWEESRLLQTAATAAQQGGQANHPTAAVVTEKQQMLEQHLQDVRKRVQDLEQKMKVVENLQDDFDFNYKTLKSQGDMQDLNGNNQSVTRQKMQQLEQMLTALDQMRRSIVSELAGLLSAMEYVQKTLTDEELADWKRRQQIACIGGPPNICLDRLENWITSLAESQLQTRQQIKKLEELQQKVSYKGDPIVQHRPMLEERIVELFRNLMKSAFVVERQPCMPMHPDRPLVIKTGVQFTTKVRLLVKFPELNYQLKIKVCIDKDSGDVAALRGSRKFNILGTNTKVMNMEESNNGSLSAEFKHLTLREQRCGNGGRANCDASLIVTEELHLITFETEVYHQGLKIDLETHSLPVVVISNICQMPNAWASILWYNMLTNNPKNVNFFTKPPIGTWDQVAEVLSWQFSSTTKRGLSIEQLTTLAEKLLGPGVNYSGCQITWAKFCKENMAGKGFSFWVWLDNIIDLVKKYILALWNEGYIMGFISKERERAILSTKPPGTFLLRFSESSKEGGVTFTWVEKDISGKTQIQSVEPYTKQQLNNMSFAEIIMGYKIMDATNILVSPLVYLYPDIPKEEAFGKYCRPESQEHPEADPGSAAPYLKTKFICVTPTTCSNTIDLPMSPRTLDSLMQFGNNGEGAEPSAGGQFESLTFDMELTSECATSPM
T2 sequence (P40763 whole entry): as the sequence (P40763 whole entry, species assumed) above

In the case of `O=S(=O)(Nc1cc(Sc2ccccc2)c(O)c2ccccc12)c1ccc(F)cc1` [Compound C188-16], the “Inhibition of STAT3 binding to pY-peptide compared with C188” value (“Inhibition … compared with C188” for short) (STAT3) is reported as “improved inhibition”, the IC50 (STAT3) is reported as 4 µM and the IC50 (pSTAT5) is reported as greater than 300 µM. For the same molecule, the IC50 (pSTAT1 (Tyr-701)) was greater than 300 µM.

`O=S(=O)(Nc1cc(Sc2nc[nH]n2)c(O)c2ccccc12)c1ccc(F)cc1` [Compound C188-17] was tested, and the “Inhibition … compared with C188” value (STAT3) was “improved inhibition”, the IC50 (STAT3) was 3.5 ± 2.1 µM and the IC50 (pSTAT3 (Tyr-705)) was greater than 300 µM. For the same molecule, the IC50 (pSTAT1 (Tyr-701)) was greater than 300 µM.

`Cc1cc(C)c(S(=O)(=O)Nc2cc(Sc3nc[nH]n3)c(O)c3ccccc23)cc1C` [Compound C188-18] was tested, and the “Inhibition … compared with C188” value (STAT3) was “improved inhibition”, the IC50 (STAT3) was 3.5 ± 0.7 µM and the IC50 (pSTAT3 (Tyr-705)) was greater than 300 µM. The IC50 (pSTAT5) was greater than 300 µM and the IC50 (pSTAT1 (Tyr-701)) was greater than 300 µM.

With `COc1ccc(OC)c(S(=O)(=O)Nc2cc(Sc3ccccc3)c(O)c3ccccc23)c1` [Compound C188-19] the “Inhibition … compared with C188” value (STAT3) was “improved inhibition”, the IC50 (STAT3) was 5.5 ± 4.9 µM and the IC50 (pSTAT3 (Tyr-705)) was greater than 300 µM. The IC50 (pSTAT5) was greater than 300 µM and the IC50 (pSTAT1 (Tyr-701)) was greater than 300 µM.

`CCOC(=O)c1c(C)oc2c1cc(NS(=O)(=O)c1cccc3cccnc13)c1ccccc12` [Compound C188-20] gave an IC50 (STAT3) of 27 ± 25.5 µM, an IC50 (pSTAT3 (Tyr-705)) greater than 300 µM and an IC50 (pSTAT5) greater than 300 µM. For the same molecule, the IC50 (pSTAT1 (Tyr-701)) was 9 µM.

For `O=S(=O)(Nc1ccc(O)c2ccccc12)c1ccccc1` [Compound C188-21], the IC50 (STAT3) was greater than 300 µM, the IC50 (pSTAT3 (Tyr-705)) was 15 ± 17 µM and the IC50 (pSTAT1 (Tyr-701)) was greater than 300 µM.

For `Cc1ccc(S(=O)(=O)Nc2cc3c4c(oc3c3ccccc23)CCC(C(C)(C)C)C4)c(C)c1` (centres unmarked) [Compound C188-26], the IC50 (STAT3) was 89 ± 2.8 µM and the IC50 (pSTAT5) was greater than 300 µM.

In the case of `O=S(=O)(Nc1ccc(O)c2ccccc12)c1ccc(F)cc1` [Compound C188-27], the IC50 (STAT3) is reported as greater than 300 µM, the IC50 (pSTAT5) is reported as greater than 300 µM and the IC50 (pSTAT1 (Tyr-701)) is reported as greater than 300 µM.

With `CC(=O)Oc1c(Br)cc(N(C(C)=O)S(=O)(=O)c2ccc(C)cc2)c2ccccc12` [Compound C188-28] the IC50 (STAT3) was 71 ± 33.9 µM, the IC50 (pSTAT5) was greater than 300 µM and the IC50 (pSTAT1 (Tyr-701)) was 10 µM.

For `COCc1oc2c(cc(NS(=O)(=O)c3ccc(F)cc3)c3ccccc32)c1C(=O)OC` [Compound C188-29], the IC50 (STAT3) was 27.5 ± 10.6 µM, the IC50 (pSTAT5) was greater than 300 µM and the IC50 (pSTAT1 (Tyr-701)) was greater than 300 µM.

In the case of `CCOC(=O)c1c(C)oc2c1cc(NS(=O)(=O)c1ccc(C(C)(C)C)cc1)c1ccccc12` [Compound C188-35], the IC50 (STAT3) is reported as 25.5 ± 6.4 µM, the IC50 (pSTAT5) is reported as greater than 300 µM and the IC50 (pSTAT1 (Tyr-701)) is reported as greater than 300 µM.

With `COc1ccc(S(=O)(=O)Nc2cc(Sc3cccc4cccnc34)c(O)c3ccccc23)cc1` [Compound C188-38] the IC50 (STAT3) was 18.5 ± 9.2 µM and the IC50 (pSTAT1 (Tyr-701)) was greater than 300 µM.
